Like-named read-outs stand apart in the source and are kept apart here.
Experiments:
[1] = tested on: green rice leafhopper (Nephotettix cincticeps); experiment: Simulated paddy field box test, green rice leafhopper, Test example 6; type: in vivo; conditions: wettable powder, 100 ppm, 100 liter/10 are, after 48 hours
Description: (§1) The wettable powder of each of the present compounds (1), (3), (5), (6) and (11) prepared in Preparation example 4 was diluted with water so that the concentration of active ingredient was 100 ppm. Soil was placed in a plastic box [5 m×5 m×2 m (deep)] to a level of 50 cm from the bottom, and rice plants about 50 cm high were transplanted at invervals of 50 cm. Water was then placed in the box so that water depth was 5 cm, and 20 killifishes (Oryzias latipes) were liberated therein. Thereafter, the above dilute solution was sprayed on the box at a rate of 100 liter/10 are. The solution fell on the rice plants as well as on the water surface.
(§2) One hour after treatment, 100 female adults of green rice leafhopper (Nephotettix cincticeps) were liberated in the box which was immediately covered with a net.

[2] = tested on: killifishes (Oryzias latipes); experiment: Simulated paddy field box test, killifish survival, Test example 6; type: in vivo; conditions: wettable powder, 100 ppm, 100 liter/10 are, water depth 5 cm, after 48 hours
Description: as §1, §2

[3] = tested on: killifish (Oryzias latipes); experiment: Toxicity to killifish (TLm48), Test example 1; type: in vivo; conditions: killifish, medium tolerance limit, 48 hours
Description: (§3) Toxicity to killifish (Oryzias latipes) was tested accordig to the test method for toxicity to fishes described in Notification B No. 2735 of the Ministry of Agriculture and Forestry (Nov. 25, 1965). Namely, each of the present compounds (1), (2), (4), (5), (6), (8), (9), (11) and reference compounds was dissolved or suspended in "Tween 80" and diluted successively with dechlorinated tap water. Ten killifish (0.2-0.3 g per fish) were released in a 10-liter glass vessel containing 5 liters of each preparation.
(§4) In order to make it clearer that the present compounds have a low toxicity to fishes as well as a high insecticidal activity, a safety coefficient to fishes was calculated from the test results of toxicity to fishes and insecticidal activity. [formula]
(§5) A detailed explanation will be given to a method of how to calculate the safety coefficient. In the case of green rice leafhoppers, calculation was based on the concentration of active ingredient in water obtained by applying a test solution containing the active ingredient in an amount corresponding to LC50 (ppm) to a flooded paddy field 5 cm deep at a rate of 100 liter/10 are, provided that all the active ingredient applied entered the water.
(§6) For example, the safety coefficient to fishes of the present compound (1) is calculated as follows: The quantity of water in a flooded paddy field 5 cm deep and 10 are in area is 50 tons; when a test solution containing the active ingredient in an amount corresponding to LC50 (ppm) is added to the paddy field at a rate of 100 liter/10 are the concentration of the active ingredient in water (hereinafter referred to as (b)) is 0.008 pp; as the toxicity to fishes [TLm48 (ppm)] (hereinafter referred to as (a)) is >2.0 ppm, said coefficient can be calculated by dividing (a) by (b). In this case, the coefficient is >250, which means that the present compound (1) has a safety higher than 250-fold.

[4] = Toxicity to killifish (TLm48), Test example 1; type: in vivo, Oryzias latipes; conditions: for selectivity ratio: in vivo, TLm48 divided by concentration in water at green rice leafhopper LC50, read-out: Safety coefficient to fishes (a)/(b); for LC50 at 48 h: water, killifish, medium tolerance limit, read-out: Toxicity to fishes TLm48 (a)
Description: as §3, §4, §5, §6

[5] = tested on: green rice leafhopper (Nephotettix cincticeps), R-strain; experiment: Insecticidal activity against green rice leafhopper, sprayed rice plants, Test example 1; type: in vivo; conditions: green rice leafhopper female adults, spray on rice plant, 26° C., 24 hours
Description: The emulsifiable concentrates of the present compounds and reference compounds prepared in Preparation example 1 were each formulated into test solutions having four different concentrations of active ingredient between 500 ppm and 0.5 ppm. Each test solution was sprayed on a rice plant in a 180-ml plastic cup which had elapsed one month after sowing, at a rate of 15 ml/2 cups by means of a turn table. After air-drying, the rice plate was covered with a wire-screen cage, and 15 female adults of green rice leafhopper (Nephotettix cincticeps) (a strain resistant to carbamates and organo-phosphates, hereinafter referred to as R-strain) were liberated therein. The plant was placed in an artificial climate chamber kept at 26° C. After 24 hours, the dead and alive were examined. The median lethal concentratin [LC50 (ppm)] was calculated from the mortality determined by 3 replications. […]

[6] = tested on: green rice leafhopper (Nephotettix cincticeps); experiment: Residual effect test, Text example 5; type: in vivo; conditions: 20 cc per pot, 24 hours
Description: The emulsifiable concentrate of each of the present compounds (5) and (11) prepared in Preparation example 1 was diluted with water so that the conentration of active ingredient was 400 ppm. Thereafter, 20 cc of the dilute solution was sprayed on rice plants grown in a 1/10,000 are Wagner's pot. The rice plants were air-dried and covered with a wire-screen cage, and 15 female adults of green rice leafhopper (Nephotettix cincticeps) were liberated therein. After 24 hours, the dead and alive were examined to obtain mortality. In order to examine the residual effect, the pot was then left as it was for 7 days, and the test insects were liberated in the same manner as above. After 24 hours, the mortality was examined. The experiment was carried out in a greenhouse and the number of replications was three.

[7] = tested on: yellow fever mosquito (Aedes aegypti); type: in vivo; conditions: 50 mg of granules (Preparation example 6) in 100 ml water, full grown larvae, after 24 hours
Description: Fifty milligrams of each of the granules of the present compounds (5) and (11) obtained in Preparation example 6 was placed in a 100-ml beaker containing 100 ml of distilled water, and 30 full grown larvae of yellow fever mosquito (Aedes aegypti) were liberated therein. After 24 hours, 100% of the larvae could be killed.

[8] = tested on: carmine mites (Tetranychus cinnabarinus); experiment: Damage to rice plants by carmine mites, Test example 4; type: in vivo; conditions: 500 ppm spray, after 10 days
Description: The emulsifiable concentrate of each of the present compounds (3), (5), (9) and (11) prepared in Preparation example 1 was diluted with water so that the concentration of the active ingredient was 500 ppm. The dilute liquor was thoroughly sprayed on rice plants (grown in a 1/10,000 are Waner's pot) on which carmine mites (Tetranychus cinnabarinus) in all stages were made parasitic.

[9] = tested on: housefly (Musca domestica); experiment: Housefly mortality, treated filter paper with bait, Test example 7; type: in vivo; conditions: 0.7 ml on filter paper, housefly female adults, 48 hours
Description: The emulsifiable concentrate obtained in preparation Example 1 was diluted 200 times with water (corresponding to 500 ppm of the active ingredient). On the bottom a polyethylene cup of 5.5 cm in diameter was placed a piece of filter paper of the same size, and 0.7 ml of the above dilute liquor was dropped on the filter paper. Sucrose (30 mg) was placed on the paper as bait. Thereafter, 10 housefly female adults (Musca domestica) were liberated in the cup which was then covered with a lid. After 48 hours, the dead and alive were counted to obtain mortality (4 replications).

[10] = tested on: CSMA strain housefly (Musca domestica); experiment: Topical application to housefly adults, Test example 8; type: in vivo; conditions: topical to ventral thorax, 0.5 μl/adult, female adults, 24 hours
Description: The present compounds as below and reference compounds were each diluted with acetone into test solutions having four different concentrations of active ingredient. Each test solution was topically applied to the ventral throrax of CSMA strain housefly female adults (Musca domestica), at a rate of 0.5 μl/adult by means of a microapplicator.
The adults were then liberated in a polyethylene cup and fed with milk, sugar and water. After 24 hours, the dead and alive were observed. The median lethal dosage (LD50 μg/adult) was obtained from the morality (3 replications).

SMILES	green rice leafhoppers alive [1]	killifishes alive [2]	Toxicity to fishes TLm48 (a) [3]	selectivity ratio [4]	LC50 at 48 h [4]	LC50 [5]	mortality at 400 ppm ([6]; insects liberated 7 days after treatment, read-out: Mortality, effect 7 days after treatment)	mortality at 400 ppm ([6]; read-out: Mortality, effect immediately after treatment)	larvae killed [7]	damage to rice plants by carmine mites [8]	mortality at 500 ppm [9]	LD50 [10]
CC1(C)[C@H](C(=O)OC(C#N)c2ccc(F)c(Oc3ccc(Br)cc3)c2)[C@H]1C(Br)C(Cl)(Cl)Br (relative stereo) [compound (1), 3-(4-Bromophenoxy)-4-fluoro-α-cyanobenzyl dl-trans-2,2-dimethyl-3-(1,2-dibromo-2,2-dichloroethyl)cyclopropanecarboxylate]	no alive green rice leafhoppers were found	all of the killifishes were alive	> 2.0 ppm	> 250	> 2 µg/mL	3.8 ppm						
CC1(C)C(C(=O)OC(C#N)c2ccc(F)c(Oc3ccc(Cl)cc3)c2)C1C(Br)C(Cl)(Cl)Br (stereo not drawn) [compound (5), 3-(4-Chlorophenoxy)-4-fluoro-α-cyanobenzyl 2,2-dimethyl-3-(1,2-dibromo-2,2-dichloroethyl)cyclopropanecarboxylate]	no alive green rice leafhoppers were found	all of the killifishes were alive		> 100	> 1 µg/mL	4.8 ppm	100%	100%	100%	the spreading of the damage could be prevented	100%	0.033 μg/adult

Source: patent publication US4376785A, “Cyclopropanecarboxylates and a low fish toxic insecticide and/or acaricide containing them” (priority 1980, dated 1983)
